Measured values taken from PubChem BioAssay (NCI).
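Each compound was tested at five concentrations against cells in 96-well plates for 48 hours. Definition used: TGI = concentration required for complete inhibition of growth.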

Columns and labels:
Test in all cases: DTP human tumour cell line panel, 48 h
LOX IMVI melanoma = test system: LOX IMVI melanoma
MCF7 breast = test system: MCF7 breast
U251 CNS = test system: U251 CNS
HCT-116 colon = test system: HCT-116 colon
HS 578T breast = test system: HS 578T breast
OVCAR-3 ovarian = test system: OVCAR-3 ovarian
NCI-H460 lung = test system: NCI-H460 lung
A498 renal = test system: A498 renal
SN12C renal = test system: SN12C renal
MOLT-4 leukemia = test system: MOLT-4 leukemia
CCRF-CEM leukemia = test system: CCRF-CEM leukemia
NCI/ADR-RES ovarian = test system: NCI/ADR-RES ovarian
NCI-H226 lung = test system: NCI-H226 lung
HT29 colon = test system: HT29 colon
MDA-MB-435 = test system: MDA-MB-435
SK-OV-3 ovarian = test system: SK-OV-3 ovarian
OVCAR-5 ovarian = test system: OVCAR-5 ovarian
SK-MEL-2 melanoma = test system: SK-MEL-2 melanoma
A549 NSCLC = test system: A549 NSCLC
HL-60(TB) leukemia = test system: HL-60(TB) leukemia
M14 melanoma = test system: M14 melanoma
SK-MEL-5 melanoma = test system: SK-MEL-5 melanoma
TK-10 renal = test system: TK-10 renal
IGROV1 ovarian = test system: IGROV1 ovarian
BT-549 breast = test system: BT-549 breast
OVCAR-8 ovarian = test system: OVCAR-8 ovarian
OVCAR-4 ovarian = test system: OVCAR-4 ovarian
MALME-3M melanoma = test system: MALME-3M melanoma
SK-MEL-28 melanoma = test system: SK-MEL-28 melanoma
UACC-62 melanoma = test system: UACC-62 melanoma
NCI-H23 lung = test system: NCI-H23 lung
ACHN renal = test system: ACHN renal
SF-295 CNS = test system: SF-295 CNS
HCT-15 colon = test system: HCT-15 colon
SF-539 CNS = test system: SF-539 CNS
UACC-257 melanoma = test system: UACC-257 melanoma
MDA-N = test system: MDA-N
SR leukemia = test system: SR leukemia
HOP-62 NSCLC = test system: HOP-62 NSCLC
RXF 393 renal = test system: RXF 393 renal
786-0 renal = test system: 786-0 renal
HOP-92 NSCLC = test system: HOP-92 NSCLC
PC-3 prostate = test system: PC-3 prostate
KM12 colon = test system: KM12 colon
UO-31 renal = test system: UO-31 renal
CAKI-1 renal = test system: CAKI-1 renal
K-562 leukemia = test system: K-562 leukemia
COLO 205 colon = test system: COLO 205 colon
MDA-MB-231 breast = test system: MDA-MB-231 breast
EKVX NSCLC = test system: EKVX NSCLC
SW-620 colon = test system: SW-620 colon
SNB-19 CNS = test system: SNB-19 CNS
HCC-2998 colon = test system: HCC-2998 colon
SF-268 CNS = test system: SF-268 CNS
DU-145 prostate = test system: DU-145 prostate
NCI-H522 lung = test system: NCI-H522 lung
SNB-75 CNS = test system: SNB-75 CNS
RPMI-8226 leukemia = test system: RPMI-8226 leukemia

C=C1CC[C@]2(C)[C@H](CC[C@@]34C[C@@H](CC[C@H]32)[C@@H](C(=O)O)C4)C1(C)C
TGI (LOX IMVI melanoma): > 12.5 µM
TGI (MCF7 breast): > 12.5 µM
TGI (U251 CNS): > 12.5 µM
TGI (HCT-116 colon): > 12.5 µM
TGI (HS 578T breast): > 12.5 µM
TGI (OVCAR-3 ovarian): > 12.5 µM
TGI (NCI-H460 lung): > 12.5 µM
TGI (A498 renal): 9.3 µM
TGI (SN12C renal): > 12.5 µM
TGI (MOLT-4 leukemia): > 12.5 µM
TGI (CCRF-CEM leukemia): > 12.5 µM
TGI (NCI/ADR-RES ovarian): > 12.5 µM
TGI (NCI-H226 lung): > 12.5 µM
TGI (HT29 colon): > 12.5 µM
TGI (MDA-MB-435): > 12.5 µM
TGI (SK-OV-3 ovarian): > 12.5 µM
TGI (OVCAR-5 ovarian): > 12.5 µM
TGI (SK-MEL-2 melanoma): > 12.5 µM
TGI (A549 NSCLC): > 12.5 µM
TGI (HL-60(TB) leukemia): > 12.5 µM
TGI (M14 melanoma): > 12.5 µM
TGI (SK-MEL-5 melanoma): > 12.5 µM
TGI (TK-10 renal): > 12.5 µM
TGI (IGROV1 ovarian): > 12.5 µM
TGI (BT-549 breast): > 12.5 µM
TGI (OVCAR-8 ovarian): > 12.5 µM
TGI (OVCAR-4 ovarian): > 12.5 µM
TGI (MALME-3M melanoma): > 12.5 µM
TGI (SK-MEL-28 melanoma): > 12.5 µM
TGI (UACC-62 melanoma): > 12.5 µM
TGI (NCI-H23 lung): > 12.5 µM
TGI (ACHN renal): > 12.5 µM
TGI (SF-295 CNS): > 12.5 µM
TGI (HCT-15 colon): > 12.5 µM
TGI (SF-539 CNS): > 12.5 µM
TGI (UACC-257 melanoma): > 12.5 µM
TGI (MDA-N): > 12.5 µM
TGI (SR leukemia): > 12.5 µM
TGI (HOP-62 NSCLC): > 12.5 µM
TGI (RXF 393 renal): > 12.5 µM
TGI (786-0 renal): > 12.5 µM
TGI (HOP-92 NSCLC): > 12.5 µM
TGI (PC-3 prostate): > 12.5 µM
TGI (KM12 colon): > 12.5 µM
TGI (UO-31 renal): > 12.5 µM
TGI (CAKI-1 renal): > 12.5 µM
TGI (K-562 leukemia): > 12.5 µM
TGI (COLO 205 colon): > 12.5 µM
TGI (MDA-MB-231 breast): > 12.5 µM
TGI (EKVX NSCLC): > 12.5 µM
TGI (SW-620 colon): > 12.5 µM
TGI (SNB-19 CNS): > 12.5 µM

CNC(=O)c1ccc(C(=O)NCCCCCN(O)C(=O)CCC(=O)NCCCCCN(O)C(=O)CCC(=O)NCCCCCN(O)C(C)=O)c(O)c1O
TGI (LOX IMVI melanoma): > 100 µM
TGI (MCF7 breast): > 100 µM
TGI (U251 CNS): > 100 µM
TGI (HCT-116 colon): > 100 µM
TGI (HS 578T breast): > 100 µM
TGI (OVCAR-3 ovarian): > 100 µM
TGI (NCI-H460 lung): > 100 µM
TGI (HCC-2998 colon): > 100 µM
TGI (SF-268 CNS): > 100 µM
TGI (A498 renal): > 100 µM
TGI (SN12C renal): > 100 µM
TGI (CCRF-CEM leukemia): 31 µM
TGI (DU-145 prostate): > 100 µM
TGI (NCI/ADR-RES ovarian): > 100 µM
TGI (NCI-H226 lung): > 100 µM
TGI (HT29 colon): > 100 µM
TGI (MDA-MB-435): > 100 µM
TGI (SK-OV-3 ovarian): > 100 µM
TGI (OVCAR-5 ovarian): > 100 µM
TGI (SK-MEL-2 melanoma): > 100 µM
TGI (A549 NSCLC): > 100 µM
TGI (HL-60(TB) leukemia): > 100 µM
TGI (M14 melanoma): > 100 µM
TGI (SK-MEL-5 melanoma): > 100 µM
TGI (TK-10 renal): > 100 µM
TGI (IGROV1 ovarian): > 100 µM
TGI (BT-549 breast): > 100 µM
TGI (OVCAR-8 ovarian): > 100 µM
TGI (OVCAR-4 ovarian): > 100 µM
TGI (MALME-3M melanoma): > 100 µM
TGI (SK-MEL-28 melanoma): > 100 µM
TGI (UACC-62 melanoma): > 100 µM
TGI (NCI-H23 lung): > 100 µM
TGI (ACHN renal): > 100 µM
TGI (SF-295 CNS): > 100 µM
TGI (HCT-15 colon): > 100 µM
TGI (SF-539 CNS): > 100 µM
TGI (UACC-257 melanoma): > 100 µM
TGI (MDA-N): > 100 µM
TGI (NCI-H522 lung): > 100 µM
TGI (HOP-62 NSCLC): > 100 µM
TGI (RXF 393 renal): > 100 µM
TGI (786-0 renal): > 100 µM
TGI (HOP-92 NSCLC): > 100 µM
TGI (PC-3 prostate): > 100 µM
TGI (KM12 colon): > 100 µM
TGI (UO-31 renal): > 100 µM
TGI (CAKI-1 renal): > 100 µM
TGI (K-562 leukemia): > 100 µM
TGI (COLO 205 colon): > 100 µM
TGI (SNB-75 CNS): > 100 µM
TGI (RPMI-8226 leukemia): > 100 µM
TGI (MDA-MB-231 breast): > 100 µM
TGI (SW-620 colon): > 100 µM
TGI (SNB-19 CNS): > 100 µM

CC(NC(=O)OC(C)(C)C)C(=O)NC1CCCC1 (configuration not stated)
TGI (LOX IMVI melanoma): > 100 µM
TGI (MCF7 breast): > 100 µM
TGI (HCT-116 colon): > 100 µM
TGI (HS 578T breast): > 100 µM
TGI (OVCAR-3 ovarian): > 100 µM
TGI (NCI-H460 lung): > 100 µM
TGI (HCC-2998 colon): > 100 µM
TGI (SF-268 CNS): > 100 µM
TGI (A498 renal): > 100 µM
TGI (SN12C renal): > 100 µM
TGI (MOLT-4 leukemia): > 100 µM
TGI (CCRF-CEM leukemia): > 100 µM
TGI (DU-145 prostate): > 100 µM
TGI (NCI/ADR-RES ovarian): > 100 µM
TGI (NCI-H226 lung): > 100 µM
TGI (HT29 colon): > 100 µM
TGI (MDA-MB-435): > 100 µM
TGI (SK-OV-3 ovarian): > 100 µM
TGI (OVCAR-5 ovarian): > 100 µM
TGI (A549 NSCLC): > 100 µM
TGI (HL-60(TB) leukemia): > 100 µM
TGI (M14 melanoma): > 100 µM
TGI (SK-MEL-5 melanoma): > 100 µM
TGI (TK-10 renal): > 100 µM
TGI (IGROV1 ovarian): > 100 µM
TGI (OVCAR-8 ovarian): > 100 µM
TGI (OVCAR-4 ovarian): > 100 µM
TGI (MALME-3M melanoma): > 100 µM
TGI (SK-MEL-28 melanoma): > 100 µM
TGI (NCI-H23 lung): > 100 µM
TGI (ACHN renal): > 100 µM
TGI (SF-295 CNS): > 100 µM
TGI (UACC-257 melanoma): > 100 µM
TGI (MDA-N): > 100 µM
TGI (SR leukemia): > 100 µM
TGI (NCI-H522 lung): > 100 µM
TGI (RXF 393 renal): > 100 µM
TGI (786-0 renal): > 100 µM
TGI (HOP-92 NSCLC): > 100 µM
TGI (PC-3 prostate): > 100 µM
TGI (KM12 colon): > 100 µM
TGI (UO-31 renal): > 100 µM
TGI (CAKI-1 renal): > 100 µM
TGI (K-562 leukemia): > 100 µM
TGI (COLO 205 colon): > 100 µM
TGI (SNB-75 CNS): > 100 µM
TGI (RPMI-8226 leukemia): > 100 µM
TGI (EKVX NSCLC): > 100 µM
TGI (SW-620 colon): > 100 µM
TGI (SNB-19 CNS): > 100 µM
